Patent US20220281848A1, “PYRAZOLE-SUBSTITUTED PYRROLIDINONES AS HERBICIDES” (FMC Corporation, priority 2019, published 2022)

How the values were obtained:
wheat = assay: Test D post-emergence, wheat seed treated with a herbicide safener; type: in vivo; details: "Cereals" Postemergent
Protocol: A formulation containing 50 g/L of the test chemical was prepared by dissolving the active ingredient in a mixture of organic solvents and emulsifier, details of which are provided in the table. This formulation was then mixed with a small, variable amount of acetone to aid dissolution, before addition of a 0.2% v/v aqueous solution of an adjuvant, as the aqueous diluent, to form an aqueous spray solution which contains a predetermined concentration of the active ingredient.
This aqueous spray solution was then sprayed onto plants including maize and wheat that had been seed treated with a herbicide safener, after one day's cultivation (for pre-emergence) or after about 12 days' cultivation (for post-emergence). The plants were grown from seeds sown in standard soil, placed in a glasshouse under controlled conditions (at 24/18° C. or 20/16° C., day/night; 16 h light; 65% humidity). After spray application the plants were then grown in a glasshouse under the same conditions and watered twice daily. After 15 d for post-emergence and 20 DAA for pre-emergence the test was evaluated (100=total damage to plant; 0=no damage to plant).

plants = assay: Test D post-emergence, other plants of Tables D2 and D4; type: in vivo; details: for damage to plant (100=total damage to plant; 0=no damage to plant), ABUTH / damage to plant (100=total damage to plant; 0=no damage to plant), AMARE / damage to plant (100=total damage to plant; 0=no damage to plant), BIDPI / damage to plant (100=total damage to plant; 0=no damage to plant), BRAPL / damage to plant (100=total damage to plant; 0=no damage to plant), CYPES / damage to plant (100=total damage to plant; 0=no damage to plant), DIGSA / damage to plant (100=total damage to plant; 0=no damage to plant), ECHCG / damage to plant (100=total damage to plant; 0=no damage to plant), ELEIN / damage to plant (100=total damage to plant; 0=no damage to plant), EPHHL / damage to plant (100=total damage to plant; 0=no damage to plant), GLXMA / damage to plant (100=total damage to plant; 0=no damage to plant), IPOHE / damage to plant (100=total damage to plant; 0=no damage to plant), ORYSA / damage to plant (100=total damage to plant; 0=no damage to plant), PANMI / damage to plant (100=total damage to plant; 0=no damage to plant), SETFA / damage to plant (100=total damage to plant; 0=no damage to plant), SORVU: post-emergence
How it was run: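 Seeds treated with herbicide safener; sown in soil; glasshouse, 16 h light, 65% humidity. Sprayed day 1 (pre) or ~day 12 (post). Spray in 0.2% v/v adjuvant. Scored 0–100 damage: 20 DAA pre, 15 d post.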

[1] = "Cereals" Postemergent, Rates 130, evaluated after 15 d
[2] = "Cereals" Postemergent, Rates 250, evaluated after 15 d
[3] = "Cereals" Postemergent, Rates 500, evaluated after 15 d

COc1c(F)cccc1NC(=O)C1C(=O)N(C)CC1c1cc(C(F)(F)F)n(C)n1 (racemic) [Compound 18]
TRZAW damage rating (100=total damage to plant; 0=no damage to plant) (wheat; Rates 130, evaluated after 15 d): 0
TRZAW damage rating (100=total damage to plant; 0=no damage to plant) (wheat; Rates 250, evaluated after 15 d): 10
TRZAW damage rating (100=total damage to plant; 0=no damage to plant) (wheat; Rates 500, evaluated after 15 d): 40
ALOMY damage rating (100=total damage to plant; 0=no damage to plant) (plants; [1]): 10
ALOMY damage rating (100=total damage to plant; 0=no damage to plant) (plants; [2]): 30
ALOMY damage rating (100=total damage to plant; 0=no damage to plant) (plants; [3]): 40
AVEFA damage rating (100=total damage to plant; 0=no damage to plant) (plants; [1]): 0
AVEFA damage rating (100=total damage to plant; 0=no damage to plant) (plants; [2]): 20
AVEFA damage rating (100=total damage to plant; 0=no damage to plant) (plants; [3]): 40
BEAVA damage rating (100=total damage to plant; 0=no damage to plant) (plants; [1]): 0
BEAVA damage rating (100=total damage to plant; 0=no damage to plant) (plants; [2]): 0
BEAVA damage rating (100=total damage to plant; 0=no damage to plant) (plants; [3]): 0
BROTE damage rating (100=total damage to plant; 0=no damage to plant) (plants; [1]): 0
BROTE damage rating (100=total damage to plant; 0=no damage to plant) (plants; [2]): 0
BROTE damage rating (100=total damage to plant; 0=no damage to plant) (plants; [3]): 0
BRSNN damage rating (100=total damage to plant; 0=no damage to plant) (plants; [1]): 10
BRSNN damage rating (100=total damage to plant; 0=no damage to plant) (plants; [2]): 10
BRSNN damage rating (100=total damage to plant; 0=no damage to plant) (plants; [3]): 20
CHEAL damage rating (100=total damage to plant; 0=no damage to plant) (plants; [1]): 0
CHEAL damage rating (100=total damage to plant; 0=no damage to plant) (plants; [2]): 0
CHEAL damage rating (100=total damage to plant; 0=no damage to plant) (plants; [3]): 20
GALAP damage rating (100=total damage to plant; 0=no damage to plant) (plants; [1]): 0
GALAP damage rating (100=total damage to plant; 0=no damage to plant) (plants; [2]): 0
GALAP damage rating (100=total damage to plant; 0=no damage to plant) (plants; [3]): 40
HORVW damage rating (100=total damage to plant; 0=no damage to plant) (plants; [1]): 0
HORVW damage rating (100=total damage to plant; 0=no damage to plant) (plants; [2]): 30
HORVW damage rating (100=total damage to plant; 0=no damage to plant) (plants; [3]): 50
KCHSC damage rating (100=total damage to plant; 0=no damage to plant) (plants; [1]): 0
KCHSC damage rating (100=total damage to plant; 0=no damage to plant) (plants; [2]): 0
KCHSC damage rating (100=total damage to plant; 0=no damage to plant) (plants; [3]): 0
LOLPE damage rating (100=total damage to plant; 0=no damage to plant) (plants; [1]): 0
LOLPE damage rating (100=total damage to plant; 0=no damage to plant) (plants; [2]): 0
LOLPE damage rating (100=total damage to plant; 0=no damage to plant) (plants; [3]): 10
POAAN damage rating (100=total damage to plant; 0=no damage to plant) (plants; [1]): 0
POAAN damage rating (100=total damage to plant; 0=no damage to plant) (plants; [2]): 50
POAAN damage rating (100=total damage to plant; 0=no damage to plant) (plants; [3]): 70
POLCO damage rating (100=total damage to plant; 0=no damage to plant) (plants; [1]): 0
POLCO damage rating (100=total damage to plant; 0=no damage to plant) (plants; [2]): 0
POLCO damage rating (100=total damage to plant; 0=no damage to plant) (plants; [3]): 0
SINAR damage rating (100=total damage to plant; 0=no damage to plant) (plants; SINAR, "Cereals" Postemergent, Rates 500, evaluated after 15 d): 40
STEME damage rating (100=total damage to plant; 0=no damage to plant) (plants; [1]): 0
STEME damage rating (100=total damage to plant; 0=no damage to plant) (plants; [2]): 0
STEME damage rating (100=total damage to plant; 0=no damage to plant) (plants; [3]): 20
VERPE damage rating (100=total damage to plant; 0=no damage to plant) (plants; [1]): 0
VERPE damage rating (100=total damage to plant; 0=no damage to plant) (plants; [2]): 0
VERPE damage rating (100=total damage to plant; 0=no damage to plant) (plants; [3]): 40
damage to plant (100=total damage to plant; 0=no damage to plant), ABUTH (plants; rate 130, evaluated after 15 d): 0
damage to plant (100=total damage to plant; 0=no damage to plant), ABUTH (plants; rate 250, evaluated after 15 d): 0
damage to plant (100=total damage to plant; 0=no damage to plant), ABUTH (plants; rate 500, evaluated after 15 d): 30
damage to plant (100=total damage to plant; 0=no damage to plant), AMARE (plants; rate 130, evaluated after 15 d): 0
damage to plant (100=total damage to plant; 0=no damage to plant), AMARE (plants; rate 250, evaluated after 15 d): 10
damage to plant (100=total damage to plant; 0=no damage to plant), AMARE (plants; rate 500, evaluated after 15 d): 20
damage to plant (100=total damage to plant; 0=no damage to plant), BIDPI (plants; rate 130, evaluated after 15 d): 0
damage to plant (100=total damage to plant; 0=no damage to plant), BIDPI (plants; rate 250, evaluated after 15 d): 0
damage to plant (100=total damage to plant; 0=no damage to plant), BIDPI (plants; rate 500, evaluated after 15 d): 20
damage to plant (100=total damage to plant; 0=no damage to plant), BRAPL (plants; rate 130, evaluated after 15 d): 60
damage to plant (100=total damage to plant; 0=no damage to plant), BRAPL (plants; rate 250, evaluated after 15 d): 70
damage to plant (100=total damage to plant; 0=no damage to plant), BRAPL (plants; rate 500, evaluated after 15 d): 80
damage to plant (100=total damage to plant; 0=no damage to plant), CYPES (plants; rate 130, evaluated after 15 d): 0
damage to plant (100=total damage to plant; 0=no damage to plant), CYPES (plants; rate 250, evaluated after 15 d): 0
damage to plant (100=total damage to plant; 0=no damage to plant), CYPES (plants; rate 500, evaluated after 15 d): 0
damage to plant (100=total damage to plant; 0=no damage to plant), DIGSA (plants; rate 130, evaluated after 15 d): 30
damage to plant (100=total damage to plant; 0=no damage to plant), DIGSA (plants; rate 250, evaluated after 15 d): 60
damage to plant (100=total damage to plant; 0=no damage to plant), DIGSA (plants; rate 500, evaluated after 15 d): 70
damage to plant (100=total damage to plant; 0=no damage to plant), ECHCG (plants; rate 130, evaluated after 15 d): 0
damage to plant (100=total damage to plant; 0=no damage to plant), ECHCG (plants; rate 250, evaluated after 15 d): 60
damage to plant (100=total damage to plant; 0=no damage to plant), ECHCG (plants; rate 500, evaluated after 15 d): 70
damage to plant (100=total damage to plant; 0=no damage to plant), ELEIN (plants; rate 130, evaluated after 15 d): 0
damage to plant (100=total damage to plant; 0=no damage to plant), ELEIN (plants; rate 250, evaluated after 15 d): 0
damage to plant (100=total damage to plant; 0=no damage to plant), ELEIN (plants; rate 500, evaluated after 15 d): 0
damage to plant (100=total damage to plant; 0=no damage to plant), EPHHL (plants; rate 130, evaluated after 15 d): 0
damage to plant (100=total damage to plant; 0=no damage to plant), EPHHL (plants; rate 250, evaluated after 15 d): 10
damage to plant (100=total damage to plant; 0=no damage to plant), EPHHL (plants; rate 500, evaluated after 15 d): 20
damage to plant (100=total damage to plant; 0=no damage to plant), GLXMA (plants; rate 130, evaluated after 15 d): 0
damage to plant (100=total damage to plant; 0=no damage to plant), GLXMA (plants; rate 250, evaluated after 15 d): 0
damage to plant (100=total damage to plant; 0=no damage to plant), GLXMA (plants; rate 500, evaluated after 15 d): 0
damage to plant (100=total damage to plant; 0=no damage to plant), IPOHE (plants; rate 130, evaluated after 15 d): 0
damage to plant (100=total damage to plant; 0=no damage to plant), IPOHE (plants; rate 250, evaluated after 15 d): 20
damage to plant (100=total damage to plant; 0=no damage to plant), IPOHE (plants; rate 500, evaluated after 15 d): 30
damage to plant (100=total damage to plant; 0=no damage to plant), ORYSA (plants; rate 130, evaluated after 15 d): 0
damage to plant (100=total damage to plant; 0=no damage to plant), ORYSA (plants; rate 250, evaluated after 15 d): 0
damage to plant (100=total damage to plant; 0=no damage to plant), ORYSA (plants; rate 500, evaluated after 15 d): 0
damage to plant (100=total damage to plant; 0=no damage to plant), PANMI (plants; rate 130, evaluated after 15 d): 0
damage to plant (100=total damage to plant; 0=no damage to plant), PANMI (plants; rate 250, evaluated after 15 d): 10
damage to plant (100=total damage to plant; 0=no damage to plant), PANMI (plants; rate 500, evaluated after 15 d): 10
damage to plant (100=total damage to plant; 0=no damage to plant), SETFA (plants; rate 130, evaluated after 15 d): 0
damage to plant (100=total damage to plant; 0=no damage to plant), SETFA (plants; rate 250, evaluated after 15 d): 30
damage to plant (100=total damage to plant; 0=no damage to plant), SETFA (plants; rate 500, evaluated after 15 d): 70
damage to plant (100=total damage to plant; 0=no damage to plant), SORVU (plants; rate 130, evaluated after 15 d): 0
damage to plant (100=total damage to plant; 0=no damage to plant), SORVU (plants; rate 250, evaluated after 15 d): 0
damage to plant (100=total damage to plant; 0=no damage to plant), SORVU (plants; rate 500, evaluated after 15 d): 0
